From patent US20250145570A1, “DHODH INHIBITOR POLYMORPH” (Aslan Pharmaceuticals Pte Ltd, priority 2022, published 2025)

Assay: Characterisation of new polymorphs: XRPD before and after drying/grinding
Format: physicochemical
Procedure: 500 μL 1,1,1.3.3.3-Hexafluoro-2-Propanol was added to 20 mg of amorphous farudodstat DSP polymorph in a 1.5 mL of HPLC vial equipped with a magnetic stirring bar, resulting in formation of a mobile slurry. The slurry was isothermally stirred for 2 weeks at 40° C. An additional 20 mg of material was added to the slurry as it became a clear solution after one week. Solids were isolated by centrifugation using a […] Nylon filter, and were analysed without any further drying by XRPD, TGA and 1H NMR (proton nuclear magnetic resonance). Finally, the samples were dried at 40° C. for 4 hrs and then reanalysed by XRPD.
350 μL of N-Methylpyrrolidone (NMP) was added to 20 mg of amorphous farudodstat DSP polymorph in a 1.5 mL HPLC vial equipped with a magnetic stirring bar to prepare a mobile slurry. The resulting slurry was thermally cycled for 3 days between 5-40° C. (Ramp rate: 0.1° C./min with isothermal holds of 1 hour at 40° C. and 5° C.). The saturated solution was then evaporated at 100° C., before the solids were analysed by XRPD.

Stability of polymorphic form: unstable/metastable
XRPD after gentle grinding (gentle grinding): did not change the pattern observed
SMILES: COc1cccc(-c2cc(F)c(Nc3ncccc3C(=O)O)c(F)c2)c1 [NMP polymorph]
Form after drying (drying at 40° C. for 4 hours): conversion of Pattern 3 back to Pattern 1
